Laboratory results as given in publication PMC9109057, “Designing Self‐Assembling Chimeric Peptide Nanoparticles with High Stability for Combating Piglet Bacterial Infections” (Advanced Science, 2022).
≈ marks a conversion by molar mass, not a printed value. Where a SMILES comes first, the peptide text is derived from it. [ ]: non-standard residue; d: D form. The star is where a group is joined. PEG8 = NCCOCCOCCOCCOCCOCCOCCOCCOCCC(=O)O; Myristoyl = CCCCCCCCCCCCCC(=O)*

Assays:
[1] = test system: C57BL/6 mice; conditions: mouse, in vivo, ip
Method: Healthy female C57BL/6 mice (weight is about 20 g) were randomly divided into five groups with six replicates per group. Mice were acclimated for 3 d in an environment of suitable temperature (20–24 °C), humidity (50–60%), and alternating light and dark. During the assay, the first group of mice was intraperitoneally injected with 150 µL of saline (once daily), and the second to fifth groups of mice were intraperitoneally injected with 150 µL nanoparticles NPs1 or NPs2 at doses of 15 and 30 mg kg^−1 (once daily). Continuous injection was given for 7 days. At 12 h after the last administration, the mice were euthanized using mild ether anesthesia. Blood samples were taken from the mice's orbital vein, and serum was analyzed using an automatic biochemical analyzer. The kidneys and livers of the mice were taken, weighed, and fixed with 4% paraformaldehyde; then, histological analysis was performed via H&E staining.

[2] = test system: HEK293T cells; assay: Cytotoxicity assay (MTT; SYTO9/PI live/dead imaging); format: cell-based, Human; conditions: 64 × 10^−6 M, 2 h, 37 °C, laser confocal microscope
Method: 3‐(4,5‐dimethylthiazol‐2‐yl)‐2,5‐diphenyltetrazolium bromide (MTT) dye was used to determine the cytotoxicity of the peptide nanoparticles.^[ [47] ^] Human embryonic kidney (HEK) 293T cells were seeded into 96‐well plates at a concentration of (1–2) × 10^5 cells per well in high glucose DMEM and placed in a cell incubator (5% CO2, 37 °C) for 24 h. After discarding the medium, peptides (100 µL) were added with a concentration range of 0.125 × 10^−6–64 × 10^−6 M to wells 1–10 of a 96‐well plate and incubated at 37 ℃ for 2 h. Samples without peptides were used as positive controls and samples without cells were used as negative controls. Subsequently, 20 µL of MTT (5 mg mL^−1) was added to each well before another 4 h of incubation. After discarding the supernatant, 150 µL of dimethyl sulfoxide was added to each well of the 96‐well plate, to fully dissolve the crystals; then, the absorbance at a wavelength of 570 nm was measured using a microplate reader. Each test was performed in duplicate and repeated three times. Cell viability was expressed as a percentage. For laser confocal microscope samples, after the peptides (the final concentration is 64 × 10^−6 M) were added to a 96‐well plate, the final concentration of 5 × 10^−6 M SYTO9 and 20 µg mL^−1 PI dye was added to a 96‐well plate, and incubated at 37 ℃ for 2 h. Cells were imaged using a laser scanning confocal microscope. A sample without peptide nanoparticles was used as a control.

[3] = target: T1, pepsin (Sus scrofa, UniProt P00791); assay: Protease stability assay (MIC and RP-HPLC read-out); format: in vitro ADME; conditions: for Antibacterial activity (MIC) after treatment with pepsin: equal volumes of peptide 2560 × 10^−6 M and pepsin 8 mg mL^−1, 37 °C, 1 h, MIC vs E. coli ATCC25922 and S. aureus ATCC6538, n = 6; for RP-HPLC peak shape and area after treatment with pepsin: pepsin 4 or 8 mg mL^−1, 37 °C, 8 h vs 0 h control, C18 RP-HPLC, UV 214 nm
T1 construct: purchased Sigma-Aldrich (China)
Method: (§1) An equal volume of peptide nanoparticles (2560 × 10^−6 M) and pepsin, trypsin, or chymotrypsin (8 mg mL^−1) was mixed and incubated at 37 °C for 1 h. Then, the MICs of peptide nanoparticles against E. coli ATCC25922 and S. aureus ATCC6538 were measured using the above‐mentioned method. Each test was performed in duplicate and repeated three times.
(§2) For RP‐HPLC, an equal volume of peptide nanoparticles (2560 × 10^−6 M) and pepsin, trypsin, or chymotrypsin (4 or 8 mg mL^−1) was mixed. The mixed solution was incubated at 37 °C for a predetermined time (0, 2, 4, or 8 h), and the protease was completely inactivated by heating in boiling water at 100 °C for 5 min. The concentration of peptide nanoparticles in the samples was then diluted to 256 × 10^−6 M, and the samples were analyzed using an RP‐HPLC system equipped with an Acchorm Unitary C18 column (5 µm, 100 Å, 4.6 mm × 250 mm). A gradient of 42% to 96% acetonitrile in water with 0.1% trifluoroacetic acid was used as the mobile phase at a flow rate of 0.8 mL min^−1. UV detection was performed at a wavelength of 214 nm.

[4] = target: T2, chymotrypsin (Bos taurus, UniProt P00766); assay: as above; format: in vitro ADME; conditions: equal volumes of peptide 2560 × 10^−6 M and chymotrypsin 8 mg mL^−1, 37 °C, 1 h; MIC vs E. coli ATCC25922 and S. aureus ATCC6538; n = 6
T2 construct: purchased Sigma-Aldrich (China)
Method: as §1, §2

[5] = test system: trypsin; assay: as above; format: in vitro ADME; conditions: equal volumes of peptide 2560 × 10^−6 M and trypsin 8 mg mL^−1, 37 °C, 1 h; MIC vs E. coli ATCC25922 and S. aureus ATCC6538; n = 6
Method: as §1, §2

[6] = test system: porcine red blood cells; format: cell-based; conditions: pH 7.4
Method: Fresh porcine red blood cells were used to study the hemolysis of self‐assembled peptide nanoparticles.^[ [48] ^] The red blood cells were collected by washing with PBS (10 × 10^−3 M, pH 7.4) until the supernatant became clear. A 10% v/v red blood cell suspension was prepared with PBS, and peptide nanoparticles with a final concentration of 128 × 10^−6 M were added to the suspension (1 mL). After gentle incubation at 37 °C for 2 h, the cells were centrifuged at 6000 rpm for 5 min, and the absorbance of the supernatant was measured at 570 nm. Two red blood cell suspensions (one containing 0.2% Triton X‐100, the other without peptide nanoparticles) were used as positive and negative controls, respectively. The hemolysis of each sample was calculated, and images were collected.

[7] = test system: S. aureus ATCC6538; format: cell-based
Method: (§3) The MICs of the self‐assembling peptide nanoparticles were determined using the modified broth microdilution method.^[ [46] ^] The bacteria were resuspended in a logarithmic growth phase in a Mueller–Hinton broth (MHB) medium, the optical density (OD) at a wavelength of 600 nm was adjusted to ≈ 0.4, and the suspension was diluted 1000 times with MHB. In a 96‐well plate, the peptides were diluted via multiple dilutions using a 0.2% bovine serum albumin solution to a concentration range of 0.25 × 10^−6–128 × 10^−6 M. Subsequently, the diluted bacterial solution and peptide solution were mixed in a 1:1 ratio in a 96‐well plate and incubated at 37 °C. After 18–24 h, the absorbance at 492 nm was measured using a microplate reader. The MIC value was defined as the lowest peptide nanoparticle concentration without bacterial growth. Each test was performed in duplicate and repeated three times.

[8] = test system: E. coli ATCC25922; format: cell-based
Method: as §3

[9] = test system: P. aeruginosa 27853; format: cell-based
Method: as §3

[10] = test system: S. aureus CVCC1882; format: cell-based
Method: as §3

[11] = test system: S.epidermidis 49134; format: cell-based
Method: as §3

[12] = test system: C. rodentium DBS100; format: cell-based
Method: as §3

T1 sequence (P00791 60-385): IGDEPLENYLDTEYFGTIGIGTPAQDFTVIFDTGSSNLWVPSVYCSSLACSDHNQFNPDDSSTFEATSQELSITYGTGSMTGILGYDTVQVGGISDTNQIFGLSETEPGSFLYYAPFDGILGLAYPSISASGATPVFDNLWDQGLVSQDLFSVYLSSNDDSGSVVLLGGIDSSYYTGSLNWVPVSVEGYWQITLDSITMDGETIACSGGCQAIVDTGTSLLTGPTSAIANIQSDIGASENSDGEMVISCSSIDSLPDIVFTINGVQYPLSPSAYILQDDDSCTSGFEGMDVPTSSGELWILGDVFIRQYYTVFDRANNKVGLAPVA

| SMILES | Side effects on mice [1] | Live/dead (SYTO9/PI) imaging of HEK293T cells [2] | Antibacterial activity (MIC) after treatment with pepsin [3] | RP-HPLC peak shape and area after treatment with pepsin [3] | Antibacterial activity (MIC) after treatment with chymotrypsin [4] | Antibacterial activity (MIC) after treatment with trypsin [5] | MHC [6] | MIC S. aureus 6538 [7] | MIC E. coli 25922 [8] | MIC P. aeruginosa 27853 [9] | MIC S. aureus 1882 [10] | MIC S.epidermidis 49134 [11] | MIC C. rodentium DBS100 [12] |
| --- | --- | --- | --- | --- | --- | --- | --- | --- | --- | --- | --- | --- | --- |
| CCCCCCCCCCCCCC(=O)N1CCC[C@H]1C(=O)N[C@@H](Cc1ccccc1)C(=O)N1CCC[C@H]1C(=O)N[C@@H](Cc1ccccc1)C(=O)N1CCC[C@H]1C(=O)N[C@@H](Cc1ccccc1)C(=O)N1CCC[C@H]1C(=O)N[C@@H](CCCCNC(=O)CCOCCOCCOCCOCCOCCOCCOCCOCCN)C(=O)N1CCC[C@H]1C(=O)N[C@@H](CCCCN)C(=O)N1CCC[C@H]1C(=O)N[C@@H](CCCCN)C(=O)N1CCC[C@H]1C(=O)N[C@@H](CCCCN)C(=O)N1CCC[C@H]1C(=O)N[C@@H](CCCCN)C(=O)N1CCC[C@H]1C(=O)N[C@@H](CCCCN)C(=O)N1CCC[C@H]1C(N)=O [NPs1] (Myristoyl-PFPFPFPK(PEG8)PKPKPKPKPKP-NH2) | negligible | only led to a few cell deaths | remained essentially unchanged | remained intact | remained essentially unchanged | remained essentially unchanged | > 128 | 5.3 ± 1.9 µM (≈ 15 µg/mL) | 9.3 ± 3.0 µM (≈ 26.3 µg/mL) | 12.0 ± 4.0 µM (≈ 34 µg/mL) | – | – | – |
| CCCCCCCCCCCCCC(=O)N1CCC[C@H]1C(=O)N[C@@H](Cc1ccccc1)C(=O)N1CCC[C@H]1C(=O)N[C@@H](Cc1ccccc1)C(=O)N1CCC[C@H]1C(=O)N[C@@H](Cc1ccccc1)C(=O)N1CCC[C@H]1C(=O)N[C@@H](CCCCN)C(=O)N1CCC[C@H]1C(=O)N[C@@H](CCCCN)C(=O)N1CCC[C@H]1C(=O)N[C@@H](CCCCN)C(=O)N1CCC[C@H]1C(=O)N[C@@H](CCCCN)C(=O)N1CCC[C@H]1C(=O)N[C@@H](CCCCN)C(=O)N1CCC[C@H]1C(=O)N[C@@H](CCCCNC(=O)CCOCCOCCOCCOCCOCCOCCOCCOCCN)C(=O)N1CCC[C@H]1C(N)=O [NPs2] (Myristoyl-PFPFPFPKPKPKPKPKPK(PEG8)P-NH2) | negligible | only led to a few cell deaths | remained essentially unchanged | remained intact | remained essentially unchanged | remained essentially unchanged | > 128 | 6.7 ± 1.9 µM (≈ 19 µg/mL) | 8 µM (≈ 22.7 µg/mL) | 13.3 ± 3.8 µM (≈ 37.7 µg/mL) | 10.0 ± 4.5 µM (≈ 28.3 µg/mL) | 9.3 ± 3.0 µM (≈ 26.3 µg/mL) | 6.7 ± 1.9 µM (≈ 19 µg/mL) |
| CCCCCCCCCCCCCC(=O)N1CCC[C@H]1C(=O)N[C@@H](Cc1ccccc1)C(=O)N1CCC[C@H]1C(=O)N[C@@H](Cc1ccccc1)C(=O)N1CCC[C@H]1C(=O)N[C@@H](Cc1ccccc1)C(=O)N1CCC[C@H]1C(=O)N[C@@H](CCCCN)C(=O)N1CCC[C@H]1C(=O)N[C@@H](CCCCN)C(=O)N1CCC[C@H]1C(=O)N[C@@H](CCCCN)C(=O)N1CCC[C@H]1C(=O)N[C@@H](CCCCN)C(=O)N1CCC[C@H]1C(=O)N[C@@H](CCCCN)C(=O)N1CCC[C@H]1C(=O)N[C@@H](CCCCN)C(=O)N1CCC[C@H]1C(=O)NCCOCCOCCOCCOCCOCCOCCOCCOCCC(N)=O [NPs3] (Myristoyl-PFPFPFPKPKPKPKPKPKP[PEG8]-NH2) | – | only led to a few cell deaths | – | – | – | – | > 128 | 7.3 ± 1.5 µM (≈ 20.7 µg/mL) | 9.3 ± 3.0 µM (≈ 26.3 µg/mL) | 21.3 ± 7.5 µM (≈ 60.3 µg/mL) | 14.7 ± 3.0 µM (≈ 41.6 µg/mL) | 9.3 ± 3.0 µM (≈ 26.3 µg/mL) | – |
